Results: ChEMBL document CHEMBL3137667, “[Drug-induced liver injury; fourteenth updated edition of the bibliographic database of liver injuries and related drugs]” (Gastroenterol Clin Biol, 2004)
*1 amine or outer side, *2 acyl side, *3 side chain or, on linkers, in order; H or OH if unused. Where a SMILES comes first, the peptide text is derived from it. Bridges are numbered along the chain shown (N, C = ends). [ ]: non-standard residue; d: D form. The star is where a group is joined. X1 = O=C1C[C@@H](C(=O)[*:2])N([*:1])C[C@H]1CS[C@@H]1CN2CCC1CC2; NMePhe(4-NMe2) = CN[C@@H](Cc1ccc(N(C)C)cc1)C(=O)O; Picolinoyl(3-OH) = O=C(c1ncccc1O)*; Phg = N[C@H](C(=O)O)c1ccccc1; dAbu = CC[C@@H](N)C(=O)O

What was measured:
[1] = human
[2] = Highest frequency of moderate liver toxicity observed during clinical trials, expressed as a percentage. [column '% BIOL' in source]; conditions: human
[3] = human; remark: listed apart in the source
[4] = human, serum, 4383 h
[5] = human, serum
[6] = human; remark: listed apart in the source
[7] = human; remark: listed apart in the source
[8] = human, serum; remark: listed apart in the source
[9] = human; remark: listed apart in the source
[10] = human; remark: listed apart in the source
[11] = Highest frequency of acute liver toxicity observed during clinical trials, expressed as a percentage. [column '% AIGUE' in source]; conditions: human
[12] = human; remark: listed apart in the source
[13] = human; remark: listed apart in the source
[14] = human; remark: listed apart in the source
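For Hepatotoxicity (association with vascular disease) in this document: count of indexed literature references reporting vascular liver injury in humans, e.g. peliosis hepatitis, hepatic veno-occlusive disease or Budd-Chiari syndrome.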
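For Hepatotoxicity (benign tumour) in this document: value is a count of indexed literature references citing a benign tumour confirmed by histopathology.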
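For Hepatotoxicity (choleostasis) in this document: human cholestatic liver injury, shown by histopathology or by peak ALT or AST elevation over alkaline phosphatase ratio below 2, value counts indexed literature reports.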
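For Hepatotoxicity (chronic liver disease) in this document: chronic liver injury confirmed by histopathology or persistently raised serum aminotransferase activity beyond 6 months, value given as the count of indexed literature references.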
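For Hepatotoxicity (cirrhosis) in this document: value is a count of indexed literature references reporting cirrhosis confirmed by histopathology.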
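For Hepatotoxicity (cytolytic) in this document: human cytolytic liver injury, shown by histopathology or by a ratio above 5 of peak ALT or AST elevation to alkaline phosphatase elevation, value counts indexed references.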
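For Hepatotoxicity (granulomatous hepatitis) in this document: value is a count of indexed literature references reporting granulomatous liver disease confirmed by histopathology.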
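For Hepatotoxicity (malignant tumour) in this document: malignant tumour confirmed by histopathology, value gives the count of indexed literature references reporting it.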
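For Hepatotoxicity (severe hepatitis) in this document: human clinical data: severe hepatitis, meaning potentially life-threatening liver failure or clinically observed cases, the value counts how many indexed literature references report it.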
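For Hepatotoxicity (steatosis) in this document: steatosis confirmed by histopathology, value is the count of indexed references.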

O=C(O)C[C@H](O)C[C@H](O)/C=C/c1c(C2CC2)nc2ccccc2c1-c1ccc(F)cc1 [PITAVASTATIN]
Hepatotoxicity (association with vascular disease) [1]: 0
Hepatotoxicity (moderate) ([2]; Liver): 1.7%
Hepatotoxicity (granulomatous hepatitis) [3]: 0
Hepatotoxicity (chronic liver disease) [4]: 0
Hepatotoxicity (moderate) [5]: 1
Hepatotoxicity (severe hepatitis) ([6]; Liver): 0
Hepatotoxicity (malignant tumour) [7]: 0
Hepatotoxicity (acute) [8]: 0
Hepatotoxicity (choleostasis) [9]: 0
Hepatotoxicity (cirrhosis) [10]: 0
Hepatotoxicity (acute) ([11]; Liver): 0%
Hepatotoxicity (steatosis) [12]: 0
Hepatotoxicity (benign tumour) [13]: 0
Hepatotoxicity (cytolytic) [14]: 0

CC(C)(C)C(=O)OCOC(=O)[C@@H]1N2C(=O)[C@@H](NC(=O)[C@H](N)c3ccccc3)[C@H]2SC1(C)C [PIVAMPICILLIN]
Hepatotoxicity (association with vascular disease) [1]: 0
Hepatotoxicity (moderate) [2]: 0%
Hepatotoxicity (granulomatous hepatitis) [3]: 0
Hepatotoxicity (chronic liver disease) [4]: 0
Hepatotoxicity (moderate) [5]: 0
Hepatotoxicity (severe hepatitis) [6]: 0
Hepatotoxicity (malignant tumour) [7]: 0
Hepatotoxicity (acute) [8]: 1
Hepatotoxicity (choleostasis) [9]: 0
Hepatotoxicity (cirrhosis) [10]: 0
Hepatotoxicity (acute) [11]: 0%
Hepatotoxicity (steatosis) [12]: 0
Hepatotoxicity (benign tumour) [13]: 0
Hepatotoxicity (cytolytic) [14]: 1

CC(C)(Oc1ccc(Cl)cc1)C(=O)NC(=O)NCN1CCOCC1 [PLAFIBRIDE]
Hepatotoxicity (association with vascular disease) [1]: 0
Hepatotoxicity (moderate) [2]: 20%
Hepatotoxicity (granulomatous hepatitis) [3]: 0
Hepatotoxicity (chronic liver disease) [4]: 0
Hepatotoxicity (moderate) [5]: 1
Hepatotoxicity (severe hepatitis) [6]: 0
Hepatotoxicity (malignant tumour) [7]: 0
Hepatotoxicity (acute) [8]: 0
Hepatotoxicity (choleostasis) [9]: 0
Hepatotoxicity (cirrhosis) [10]: 0
Hepatotoxicity (acute) [11]: 0%
Hepatotoxicity (steatosis) [12]: 0
Hepatotoxicity (benign tumour) [13]: 0
Hepatotoxicity (cytolytic) [14]: 0

CN1C(CSCC(F)(F)F)Nc2cc(Cl)c(S(N)(=O)=O)cc2S1(=O)=O (stereo not given) [POLYTHIAZIDE]
Hepatotoxicity (association with vascular disease) [1]: 0
Hepatotoxicity (moderate) [2]: 0%
Hepatotoxicity (granulomatous hepatitis) [3]: 0
Hepatotoxicity (chronic liver disease) [4]: 0
Hepatotoxicity (moderate) [5]: 0
Hepatotoxicity (severe hepatitis) [6]: 0
Hepatotoxicity (malignant tumour) [7]: 0
Hepatotoxicity (acute) [8]: 1
Hepatotoxicity (choleostasis) [9]: 1
Hepatotoxicity (cirrhosis) [10]: 0
Hepatotoxicity (acute) [11]: 0%
Hepatotoxicity (steatosis) [12]: 0
Hepatotoxicity (benign tumour) [13]: 0
Hepatotoxicity (cytolytic) [14]: 1

CCCN[C@H]1CCc2nc(N)sc2C1 [PRAMIPEXOLE]
Hepatotoxicity (association with vascular disease) [1]: 0
Hepatotoxicity (moderate) ([2]; Liver): 7.1%
Hepatotoxicity (granulomatous hepatitis) ([3]; Liver): 0
Hepatotoxicity (chronic liver disease) [4]: 0
Hepatotoxicity (moderate) [5]: 1
Hepatotoxicity (severe hepatitis) ([6]; Liver): 0
Hepatotoxicity (malignant tumour) [7]: 0
Hepatotoxicity (acute) [8]: 0
Hepatotoxicity (choleostasis) ([9]; Liver): 0
Hepatotoxicity (cirrhosis) [10]: 0
Hepatotoxicity (acute) ([11]; Liver): 0%
Hepatotoxicity (steatosis) [12]: 0
Hepatotoxicity (benign tumour) [13]: 0
Hepatotoxicity (cytolytic) ([14]; Liver): 0

COc1cc2nc(N3CCN(C(=O)c4ccco4)CC3)nc(N)c2cc1OC [PRAZOSIN]
Hepatotoxicity (association with vascular disease) [1]: 0
Hepatotoxicity (moderate) ([2]; Liver): 0%
Hepatotoxicity (granulomatous hepatitis) [3]: 0
Hepatotoxicity (chronic liver disease) [4]: 0
Hepatotoxicity (moderate) [5]: 0
Hepatotoxicity (severe hepatitis) ([6]; Liver): 0
Hepatotoxicity (malignant tumour) [7]: 0
Hepatotoxicity (acute) [8]: 1
Hepatotoxicity (choleostasis) [9]: 1
Hepatotoxicity (cirrhosis) [10]: 0
Hepatotoxicity (acute) ([11]; Liver): 0.2%
Hepatotoxicity (steatosis) [12]: 0
Hepatotoxicity (benign tumour) [13]: 0
Hepatotoxicity (cytolytic) [14]: 0

CC(C)(Sc1cc(C(C)(C)C)c(O)c(C(C)(C)C)c1)Sc1cc(C(C)(C)C)c(O)c(C(C)(C)C)c1 [PROBUCOL]
Hepatotoxicity (association with vascular disease) [1]: 0
Hepatotoxicity (moderate) [2]: 0%
Hepatotoxicity (granulomatous hepatitis) [3]: 0
Hepatotoxicity (chronic liver disease) [4]: 0
Hepatotoxicity (moderate) [5]: 2
Hepatotoxicity (severe hepatitis) [6]: 0
Hepatotoxicity (malignant tumour) [7]: 0
Hepatotoxicity (acute) [8]: 0
Hepatotoxicity (choleostasis) [9]: 0
Hepatotoxicity (cirrhosis) [10]: 0
Hepatotoxicity (acute) [11]: 0%
Hepatotoxicity (steatosis) [12]: 0
Hepatotoxicity (benign tumour) [13]: 0
Hepatotoxicity (cytolytic) [14]: 0

CC(CN1c2ccccc2Sc2ccccc21)N(C)C (stereo not given) [PROMETHAZINE]
Hepatotoxicity (association with vascular disease) [1]: 0
Hepatotoxicity (moderate) [2]: 0%
Hepatotoxicity (granulomatous hepatitis) [3]: 0
Hepatotoxicity (chronic liver disease) [4]: 0
Hepatotoxicity (moderate) [5]: 0
Hepatotoxicity (severe hepatitis) [6]: 0
Hepatotoxicity (malignant tumour) [7]: 0
Hepatotoxicity (acute) [8]: 2
Hepatotoxicity (choleostasis) [9]: 0
Hepatotoxicity (cirrhosis) [10]: 0
Hepatotoxicity (acute) [11]: 0%
Hepatotoxicity (steatosis) [12]: 0
Hepatotoxicity (benign tumour) [13]: 0
Hepatotoxicity (cytolytic) [14]: 0

CCN(CC)CC(=O)Oc1ccc(NC(C)=O)cc1 [PROPACETAMOL]
Hepatotoxicity (association with vascular disease) [1]: 0
Hepatotoxicity (moderate) [2]: 2.1%
Hepatotoxicity (granulomatous hepatitis) [3]: 0
Hepatotoxicity (chronic liver disease) [4]: 0
Hepatotoxicity (moderate) [5]: 1
Hepatotoxicity (severe hepatitis) [6]: 0
Hepatotoxicity (malignant tumour) [7]: 0
Hepatotoxicity (acute) [8]: 0
Hepatotoxicity (choleostasis) [9]: 0
Hepatotoxicity (cirrhosis) [10]: 0
Hepatotoxicity (acute) [11]: 0%
Hepatotoxicity (steatosis) [12]: 0
Hepatotoxicity (benign tumour) [13]: 0
Hepatotoxicity (cytolytic) [14]: 0

Cc1ccc2c(-c3ccccc3)nc(=O)n(C(C)C)c2c1 [PROQUAZONE]
Hepatotoxicity (association with vascular disease) [1]: 0
Hepatotoxicity (moderate) [2]: 1.8%
Hepatotoxicity (granulomatous hepatitis) [3]: 0
Hepatotoxicity (chronic liver disease) [4]: 0
Hepatotoxicity (moderate) [5]: 1
Hepatotoxicity (severe hepatitis) [6]: 0
Hepatotoxicity (malignant tumour) [7]: 0
Hepatotoxicity (acute) [8]: 0
Hepatotoxicity (choleostasis) [9]: 0
Hepatotoxicity (cirrhosis) [10]: 0
Hepatotoxicity (acute) [11]: 0%
Hepatotoxicity (steatosis) [12]: 0
Hepatotoxicity (benign tumour) [13]: 0
Hepatotoxicity (cytolytic) [14]: 0

COCCCN1CCC(NC(=O)c2cc(Cl)c(N)c3c2OCC3)CC1 [PRUCALOPRIDE]
Hepatotoxicity (association with vascular disease) [1]: 0
Hepatotoxicity (moderate) [2]: 5.9%
Hepatotoxicity (granulomatous hepatitis) [3]: 0
Hepatotoxicity (chronic liver disease) [4]: 0
Hepatotoxicity (moderate) [5]: 1
Hepatotoxicity (severe hepatitis) [6]: 0
Hepatotoxicity (malignant tumour) [7]: 0
Hepatotoxicity (acute) [8]: 0
Hepatotoxicity (choleostasis) [9]: 0
Hepatotoxicity (cirrhosis) [10]: 0
Hepatotoxicity (acute) [11]: 0%
Hepatotoxicity (steatosis) [12]: 0
Hepatotoxicity (benign tumour) [13]: 0
Hepatotoxicity (cytolytic) [14]: 0

Cc1oc(=O)oc1CN1CCN(c2cc3c(cc2F)c(=O)c(C(=O)O)c2n3C(C)S2)CC1 (stereo not given) [PRULIFLOXACIN]
Hepatotoxicity (association with vascular disease) [1]: 0
Hepatotoxicity (moderate) [2]: 33.3%
Hepatotoxicity (granulomatous hepatitis) [3]: 0
Hepatotoxicity (chronic liver disease) [4]: 0
Hepatotoxicity (moderate) [5]: 25
Hepatotoxicity (severe hepatitis) [6]: 0
Hepatotoxicity (malignant tumour) [7]: 0
Hepatotoxicity (acute) [8]: 0
Hepatotoxicity (choleostasis) [9]: 0
Hepatotoxicity (cirrhosis) [10]: 0
Hepatotoxicity (acute) [11]: 0%
Hepatotoxicity (steatosis) [12]: 0
Hepatotoxicity (benign tumour) [13]: 0
Hepatotoxicity (cytolytic) [14]: 0

COC(=O)c1nc2cc(Cl)c3cccnc3c2o1 [QUAZOLAST]
Hepatotoxicity (association with vascular disease) [1]: 0
Hepatotoxicity (moderate) [2]: 13%
Hepatotoxicity (granulomatous hepatitis) [3]: 0
Hepatotoxicity (chronic liver disease) [4]: 0
Hepatotoxicity (moderate) [5]: 1
Hepatotoxicity (severe hepatitis) [6]: 0
Hepatotoxicity (malignant tumour) [7]: 0
Hepatotoxicity (acute) [8]: 0
Hepatotoxicity (choleostasis) [9]: 0
Hepatotoxicity (cirrhosis) [10]: 0
Hepatotoxicity (acute) [11]: 0%
Hepatotoxicity (steatosis) [12]: 0
Hepatotoxicity (benign tumour) [13]: 0
Hepatotoxicity (cytolytic) [14]: 0

CCN(CC)CCS(=O)(=O)[C@@H]1CCN2C(=O)c3coc(n3)CC(=O)C[C@H](O)/C=C(C)/C=C/CNC(=O)/C=C/[C@@H](C)[C@@H](C(C)C)OC(=O)[C@@H]12.CC[C@H]1NC(=O)[C@@H](NC(=O)c2ncccc2O)[C@@H](C)OC(=O)[C@H](c2ccccc2)NC(=O)[C@@H]2CC(=O)[C@H](CS[C@@H]3CN4CCC3CC4)CN2C(=O)[C@H](Cc2ccc(N(C)C)cc2)N(C)C(=O)[C@@H]2CCCN2C1=O [QUINUPRISTIN/DALFOPRISTIN] ({Picolinoyl(3-OH)}-T[dAbu]P[NMePhe(4-NMe2)][X1][Phg]; ester 1-C)
Hepatotoxicity (association with vascular disease) [1]: 0
Hepatotoxicity (moderate) [2]: 7.1%
Hepatotoxicity (granulomatous hepatitis) [3]: 0
Hepatotoxicity (chronic liver disease) [4]: 0
Hepatotoxicity (moderate) [5]: 8
Hepatotoxicity (severe hepatitis) [6]: 0
Hepatotoxicity (malignant tumour) [7]: 0
Hepatotoxicity (acute) [8]: 0
Hepatotoxicity (choleostasis) [9]: 0
Hepatotoxicity (cirrhosis) [10]: 0
Hepatotoxicity (acute) [11]: 0%
Hepatotoxicity (steatosis) [12]: 0
Hepatotoxicity (benign tumour) [13]: 0
Hepatotoxicity (cytolytic) [14]: 0

CC(Cc1ccccc1)(NC(=O)CN)c1ccccc1 (stereo not given) [REMACEMIDE]
Hepatotoxicity (association with vascular disease) [1]: 0
Hepatotoxicity (moderate) [2]: 0.9%
Hepatotoxicity (granulomatous hepatitis) [3]: 0
Hepatotoxicity (chronic liver disease) [4]: 0
Hepatotoxicity (moderate) [5]: 3
Hepatotoxicity (severe hepatitis) [6]: 0
Hepatotoxicity (malignant tumour) [7]: 0
Hepatotoxicity (acute) [8]: 0
Hepatotoxicity (choleostasis) [9]: 0
Hepatotoxicity (cirrhosis) [10]: 0
Hepatotoxicity (acute) [11]: 0%
Hepatotoxicity (steatosis) [12]: 0
Hepatotoxicity (benign tumour) [13]: 0
Hepatotoxicity (cytolytic) [14]: 0
